# Test results as given in patent US20260258035A1, “FIVE-MEMBERED AND SIX-MEMBERED NITROGEN-CONTAINING COMPOUND, AND INTERMEDIATE, PREPARATION METHOD AND USE THEREOF” (HANGZHOU SYNRX THERAPEUTICS BIOMEDICAL TECHNOLOGY CO., LTD., priority 2022, published 2026).
# Key:
# PARG = PARG (Homo sapiens, UniProt Q86W56); assay: Biochemical assay (PARG, TFMU-ADPr substrate); settings: PARG, TFMU-ADPr substrate
# HCC1806 = assay: Cell viability assay (CellTiter-Glo); format: cell-based, Human; settings: Homo sapiens, HCC1806, 168 h, HCC1806, 7 days, CellTiter-Glo; read-out: IC50 (nM) in cell viability assay
# Sequence of PARG (Q86W56 whole entry): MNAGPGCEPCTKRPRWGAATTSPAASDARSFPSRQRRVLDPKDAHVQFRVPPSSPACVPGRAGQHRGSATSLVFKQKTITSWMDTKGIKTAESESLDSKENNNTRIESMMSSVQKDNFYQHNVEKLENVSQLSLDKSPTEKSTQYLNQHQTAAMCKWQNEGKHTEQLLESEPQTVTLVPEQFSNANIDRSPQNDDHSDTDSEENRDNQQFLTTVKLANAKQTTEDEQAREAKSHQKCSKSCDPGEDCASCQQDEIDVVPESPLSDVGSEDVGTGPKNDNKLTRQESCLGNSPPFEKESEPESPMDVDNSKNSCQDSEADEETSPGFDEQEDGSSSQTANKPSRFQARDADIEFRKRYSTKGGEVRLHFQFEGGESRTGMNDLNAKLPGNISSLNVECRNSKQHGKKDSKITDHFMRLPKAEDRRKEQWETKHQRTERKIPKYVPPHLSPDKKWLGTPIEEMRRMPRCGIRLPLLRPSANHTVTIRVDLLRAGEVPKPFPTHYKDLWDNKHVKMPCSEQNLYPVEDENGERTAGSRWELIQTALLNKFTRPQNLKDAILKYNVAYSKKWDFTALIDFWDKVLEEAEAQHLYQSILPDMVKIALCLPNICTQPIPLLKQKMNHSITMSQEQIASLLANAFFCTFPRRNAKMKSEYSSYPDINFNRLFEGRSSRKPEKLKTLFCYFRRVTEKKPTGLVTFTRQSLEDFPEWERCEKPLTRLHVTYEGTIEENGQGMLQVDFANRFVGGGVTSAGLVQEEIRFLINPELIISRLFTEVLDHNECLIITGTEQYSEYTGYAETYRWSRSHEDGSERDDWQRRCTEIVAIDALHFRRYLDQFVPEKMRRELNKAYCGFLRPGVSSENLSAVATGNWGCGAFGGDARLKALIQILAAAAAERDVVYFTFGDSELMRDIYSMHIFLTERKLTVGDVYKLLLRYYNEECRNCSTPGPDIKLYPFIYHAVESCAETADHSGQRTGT
SMILES,IC50 (PARG) [nM],IC50 (HCC1806) [nM]
"CC(=O)N1CCN(c2cc(S(=O)(=O)NC3(C#N)CC3)cn3c(-c4nnc(C(F)(F)F)s4)ncc23)C[C@H]1C [Example 216, (R)-8-(4-acetyl-3-methylpiperazin-1-yl)-N-(1-cyanocyclopropyl)-3-(5-(trifluoromethyl)-1,3,4-thiadiazol-2-yl)imidazo[1,5-a]pyridine-6-sulfonamide]",31.6,2340
"O=C(C1COC1)N1CCN(c2cc(S(=O)(=O)NC3CC3)cn3c(-c4nnc(C(F)(F)F)s4)ncc23)CC1 [Example 217, N-cyclopropyl-8-(4-(oxetane-3-carbonyl)piperazin-1-yl)-3-(5-(trifluoromethyl)-1,3,4-thiadiazol-2-yl)imidazo[1,5-a]pyridine-6-sulfonamide]",66.1,3070
"N#CC1(NS(=O)(=O)c2cc(N3CCC(n4ccnn4)CC3)c3cnc(-c4nnc(C(F)(F)F)s4)n3c2)CC1 [Example 218, 8-(4-(1H-1,2,3-triazol-1-yl)piperidin-1-yl)-N-(1-cyanocyclopropyl)-3-(5-(trifluoromethyl)-1,3,4-thiadiazol-2-yl)imidazo[1,5-a]pyridine-6-sulfonamide]",39.8,1050
"O=C(C1CCN(c2cc(S(=O)(=O)NC3CC3)cn3c(-c4nnc(C(F)(F)F)s4)ncc23)CC1)N1CCC1 [Example 219, 8-(4-(azetidine-1-carbonyl)piperidin-1-yl)-N-cyclopropyl-3-(5-(trifluoromethyl)-1,3,4-thiadiazol-2-yl)imidazo[1,5-a]pyridine-6-sulfonamide]",100,4610
"N#CC1(NS(=O)(=O)c2cc(N3CCC4=C(COC4=O)C3)c3cnc(-c4nnc(C(F)(F)F)s4)n3c2)CC1 [Example 220, N-(1-cyanocyclopropyl)-8-(1-oxo-1,4,6,7-tetrahydrofuro[3,4-c]pyridin-5(3H)-yl)-3-(5-(trifluoromethyl)-1,3,4-thiadiazol-2-yl)imidazo[1,5-a]pyridine-6-sulfonamide]",57.5,664
"N#CC1(NS(=O)(=O)c2cc(N3CCC(c4nnco4)CC3)c3cnc(-c4nnc(C(F)(F)F)s4)n3c2)CC1 [Example 221, 8-(4-(1,3,4-oxadiazol-2-yl)piperidin-1-yl)-N-(1-cyanocyclopropyl)-3-(5-(trifluoromethyl)-1,3,4-thiadiazol-2-yl)imidazo[1,5-a]pyridine-6-sulfonamide]",43.7,150
"CC(C)C(=O)N1CCN(c2cc(S(=O)(=O)NC3(C#N)CC3)cn3c(-c4nnc(C(F)F)s4)ncc23)C[C@H]1CO [Example 222, (S)-N-(1-cyanocyclopropyl)-3-(5-(difluoromethyl)-1,3,4-thiadiazol-2-yl)-8-(3-(hydroxymethyl)-4-isobutyrylpiperazin-1-yl)imidazo[1,5-a]pyridine-6-sulfonamide]",2.09,1670
"COC[C@@H]1CN(c2cc(S(=O)(=O)NC3(C#N)CC3)cn3c(-c4nnc(C(F)F)s4)ncc23)CCN1C(=O)C(C)C [Example 223, (S)-N-(1-cyanocyclopropyl)-3-(5-(difluoromethyl)-1,3,4-thiadiazol-2-yl)-8-(4-isobutyryl-3-(methoxymethyl)piperazin-1-yl)imidazo[1,5-a]pyridine-6-sulfonamide]",1.45,250
"CC(C)(F)C(=O)N1CCN(c2cc(S(=O)(=O)NC3(C#N)CC3)cn3c(-c4nnc(C(F)(F)F)s4)ncc23)CC1 [Example 224, N-(1-cyanocyclopropyl)-8-(4-(2-fluoro-2-methylpropanoyl)piperazin-1-yl)-3-(5-(trifluoromethyl)-1,3,4-thiadiazol-2-yl)imidazo[1,5-a]pyridine-6-sulfonamide]",13.8,1020
"CC1(C(=O)N2CCN(c3cc(S(=O)(=O)NC4(C#N)CC4)cn4c(-c5nnc(C(F)(F)F)s5)ncc34)CC2)CC1 [Example 225, N-(1-cyanocyclopropyl)-8-(4-(1-methylcyclopropane-1-carbonyl)piperazin-1-yl)-3-(5-(trifluoromethyl)-1,3,4-thiadiazol-2-yl)imidazo[1,5-a]pyridine-6-sulfonamide]",7.94,600
"N#CC1(NS(=O)(=O)c2cc(N3CCN(C(=O)C4COC4)CC3)c3cnc(-c4nnc(C(F)(F)F)s4)n3c2)CC1 [Example 226, N-(1-cyanocyclopropyl)-8-(4-(oxetane-3-carbonyl)piperazin-1-yl)-3-(5-(trifluoromethyl)-1,3,4-thiadiazol-2-yl)imidazo[1,5-a]pyridine-6-sulfonamide]",26.3,4850
"COC1(C(=O)N2CCN(c3cc(S(=O)(=O)NC4(C#N)CC4)cn4c(-c5nnc(C(F)(F)F)s5)ncc34)CC2)CC1 [Example 228, N-(1-cyanocyclopropyl)-8-(4-(1-methoxycyclopropane-1-carbonyl)piperazin-1-yl)-3-(5-(trifluoromethyl)-1,3,4-thiadiazol-2-yl)imidazo[1,5-a]pyridine-6-sulfonamide]",0.38,107
"N#CC1(NS(=O)(=O)c2cc(N3CCN(C(=O)N4CCCC4)CC3)c3cnc(-c4nnc(C(F)(F)F)s4)n3c2)CC1 [Example 229, N-(1-cyanocyclopropyl)-8-(4-(pyrrolidine-1-carbonyl)piperazin-1-yl)-3-(5-(trifluoromethyl)-1,3,4-thiadiazol-2-yl)imidazo[1,5-a]pyridine-6-sulfonamide]",3.31,800
"N#CC1(NS(=O)(=O)c2cc(N3CC[C@@H](O)C3)c3cnc(-c4nnc(C(F)(F)F)s4)n3c2)CC1 [Example 230, (R)-N-(1-cyanocyclopropyl)-8-(3-hydroxypyrrolidin-1-yl)-3-(5-(trifluoromethyl)-1,3,4-thiadiazol-2-yl)imidazo[1,5-a]pyridine-6-sulfonamide]",120,8000
"N#CC1(NS(=O)(=O)c2cc(N3CCN(C(=O)C(O)C(F)(F)F)CC3)c3cnc(-c4nnc(C(F)(F)F)s4)n3c2)CC1 (stereo not drawn) [Example 231, N-(1-cyanocyclopropyl)-8-(4-(3,3,3-trifluoro-2-hydroxypropanoyl)piperazin-1-yl)-3-(5-(trifluoromethyl)-1,3,4-thiadiazol-2-yl)imidazo[1,5-a]pyridine-6-sulfonamide]",8.32,500
"N#CC1(NS(=O)(=O)c2ccc3c(C4=CC5(CC4)CN(C(=O)C4CC4(F)F)C5)nc(-c4nnc(C(F)(F)F)s4)n3c2)CC1 (stereo not drawn) [Example 232, N-(1-cyanocyclopropyl)-1-(2-(2,2-difluorocyclopropane-1-carbonyl)-2-azaspiro[3.4]oct-5-en-6-yl)-3-(5-(trifluoromethyl)-1,3,4-thiadiazol-2-yl)imidazo[1,5-a]pyridine-6-sulfonamide]",31.6,953
"N#CC1(NS(=O)(=O)c2cc(N3CCNCC3)c3cnc(-c4nnc(C(F)(F)F)s4)n3c2)CC1 [Example 233, N-(1-cyanocyclopropyl)-8-(piperazin-1-yl)-3-(5-(trifluoromethyl)-1,3,4-thiadiazol-2-yl)imidazo[1,5-a]pyridine-6-sulfonamide]",45.7,3000
"CC(C)OC(=O)N1CCN(c2cc(S(=O)(=O)NC3(C#N)CC3)cn3c(-c4nnc(C(F)(F)F)s4)ncc23)CC1 [Example 234, isopropyl 4-(6-(N-(1-cyanocyclopropyl)sulfamoyl)-3-(5-(trifluoromethyl)-1,3,4-thiadiazol-2-yl)imidazo[1,5-a]pyridin-8-yl)piperazine-1-carboxylate]",13.2,4000
"N#CC1(NS(=O)(=O)c2cc(N3CCN(C(=O)c4ccn[nH]4)CC3)c3cnc(-c4nnc(C(F)(F)F)s4)n3c2)CC1 [Example 235, 8-(4-(1H-pyrazole-5-carbonyl)piperazin-1-yl)-N-(1-cyanocyclopropyl)-3-(5-(trifluoromethyl)-1,3,4-thiadiazol-2-yl)imidazo[1,5-a]pyridine-6-sulfonamide]",4.37,4940
"N#CC1(NS(=O)(=O)c2cc(N3CCN(C(=O)C4(O)CC4)CC3)c3cnc(-c4nnc(C(F)(F)F)s4)n3c2)CC1 [Example 237, N-(1-cyanocyclopropyl)-8-(4-(1-hydroxycyclopropane-1-carbonyl)piperazin-1-yl)-3-(5-(trifluoromethyl)-1,3,4-thiadiazol-2-yl)imidazo[1,5-a]pyridine-6-sulfonamide]",2.88,4390
"Cn1ccnc1N1CCN(c2cc(S(=O)(=O)NC3(C#N)CC3)cn3c(-c4nnc(C(F)(F)F)s4)ncc23)CC1 [Example 238, N-(1-cyanocyclopropyl)-8-(4-(1-methyl-1H-imidazol-2-yl)piperazin-1-yl)-3-(5-(trifluoromethyl)-1,3,4-thiadiazol-2-yl)imidazo[1,5-a]pyridine-6-sulfonamide]",38,15000
"N#CC1(NS(=O)(=O)c2cc(N3CC[C@H](O)C3)c3cnc(-c4nnc(C(F)(F)F)s4)n3c2)CC1 [Example 239, (S)-N-(1-cyanocyclopropyl)-8-(3-hydroxypyrrolidin-1-yl)-3-(5-(trifluoromethyl)-1,3,4-thiadiazol-2-yl)imidazo[1,5-a]pyridine-6-sulfonamide]",380,9790
"N#CC1(NS(=O)(=O)c2cc(N3CCN(C(=O)C4CC4(F)F)CC3)c3cnc(-c4nnc(C(F)(F)F)s4)n3c2)CC1 (stereo not drawn) [Example 240, N-(1-cyanocyclopropyl)-8-(4-(2,2-difluorocyclopropane-1-carbonyl)piperazin-1-yl)-3-(5-(trifluoromethyl)-1,3,4-thiadiazol-2-yl)imidazo[1,5-a]pyridine-6-sulfonamide]",13.2,2440
"N#CC1(NS(=O)(=O)c2cc(N3CCN(C(=O)C(F)F)CC3)c3cnc(-c4nnc(C(F)(F)F)s4)n3c2)CC1 [Example 241, N-(1-cyanocyclopropyl)-8-(4-(2,2-difluoroacetyl)piperazin-1-yl)-3-(5-(trifluoromethyl)-1,3,4-thiadiazol-2-yl)imidazo[1,5-a]pyridine-6-sulfonamide]",24,4180
